Results: US10219516B2, “Molecules having pesticidal utility, and intermediates, compositions, and processes, related thereto” (priority 2015, dated 2019)

Key:
Assay type in all cases: in vivo
[1] = tested on: Beet Armyworm (Spodoptera exigua, LAPHEG); experiment: Bioassay on Beet Armyworm (BAW), 128-well diet tray assay; conditions: Beet Armyworm, 128-well diet tray assay, read-out: BAW rating
Summary of the method: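 Diet in each of eight wells received 50 μg/cm^2 of test molecule (90:10 acetone-water, dried), then one to five second-instar larvae were added. Mortality (%) was scored after five to seven days at 25° C. under 14:10 light-dark and averaged across the wells.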

[2] = tested on: Cabbage Looper (Trichoplusia ni, TRIPNI); experiment: Bioassay on Cabbage Looper (CL), 128-well diet tray assay; conditions: Trichoplusia ni; Cabbage Looper, 128-well diet tray assay; read-out: CL rating
Summary of the method: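 Percent mortality, averaged across eight replicate wells, was scored after five to seven days at 25° C. under a 14:10 light-dark cycle. Each well held one to five second instar larvae on artificial diet treated at 50 μg/cm^2 with compound from 90:10 acetone-water, allowed to dry before infestation.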

[3] = tested on: Yellow Fever Mosquito (Aedes aegypti, AEDSAE); experiment: Bioassay on Yellow Fever Mosquito (YFM), 96-well plate larval assay; conditions: Yellow Fever Mosquito, 96-well plate larval assay
Summary of the method: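 Compound stocks at 4000 ppm in DMSO were diluted with 90:10 water/acetone, and 15 μL aliquots were dispensed into six replicate plates. About 1-day-old larvae in liver-powder water were added per well. Plates were covered and held at room temperature for 3 days before each well was scored for mortality.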

| SMILES | pest or weed control at 50 µg/cm2 [1] [%] | pest or weed control at 50 µg/cm2 [2] [%] | YFM rating [3] |
| --- | --- | --- | --- |
| O=C(Nc1ccc(F)c(F)c1F)c1cc(NC(=O)[C@H]2[C@H](c3cc(Cl)cc(Cl)c3)C2(Cl)Cl)ccc1Cl (relative stereo) [PF68, trans-2-Chloro-5-(2,2-dichloro-3-(3,5-dichlorophenyl)cyclopropane-1-carboxamido)-N-(2,3,4-trifluorophenyl)benzamide] | 50 to 100 | 50 to 100 | A (80-100) |
| N#Cc1ccccc1NC(=O)c1cc(NC(=O)[C@H]2[C@H](c3cc(Cl)cc(Cl)c3)C2(Cl)Cl)ccc1Cl (relative stereo) [PF72, trans-2-Chloro-N-(2-cyanophenyl)-5-(2,2-dichloro-3-(3,5-dichlorophenyl)cyclopropane-1-carboxamido)benzamide] | 50 to 100 | 50 to 100 | A (80-100) |
| O=C(Nc1ccc([N+](=O)[O-])cc1F)c1cc(NC(=O)[C@H]2[C@H](c3cc(Cl)cc(Cl)c3)C2(Cl)Cl)ccc1Cl (relative stereo) [PF74, trans-2-Chloro-5-(2,2-dichloro-3-(3,5-dichlorophenyl)cyclopropane-1-carboxamido)-N-(2-fluoro-4-nitrophenyl)benzamide] | 50 to 100 | 50 to 100 | A (80-100) |
| O=C(Nc1cc(Cl)cc(Cl)c1)c1cc(NC(=O)[C@H]2[C@H](c3cc(Cl)cc(Cl)c3)C2(Cl)Cl)ccc1Cl (relative stereo) [PF76, trans-2-Chloro-5-(2,2-dichloro-3-(3,5-dichlorophenyl)cyclopropane-1-carboxamido)-N-(3,5-dichlorophenyl)benzamide] | 50 to 100 | 50 to 100 | A (80-100) |
| CC(=O)c1cc(F)ccc1NC(=O)c1cc(NC(=O)[C@H]2[C@H](c3cc(Cl)cc(Cl)c3)C2(Cl)Cl)ccc1Cl (relative stereo) [PF77, trans-N-(2-acetyl-4-fluorophenyl)-2-chloro-5-(2,2-dichloro-3-(3,5-dichlorophenyl)cyclopropane-1-carboxamido)benzamide] | 50 to 100 | 50 to 100 | A (80-100) |
| CC(=O)c1ccc(NC(=O)c2cc(NC(=O)[C@H]3[C@H](c4cc(Cl)cc(Cl)c4)C3(Cl)Cl)ccc2Cl)c(F)c1 (relative stereo) [PF78, trans-N-(4-acetyl-2-fluorophenyl)-2-chloro-5-(2,2-dichloro-3-(3,5-dichlorophenyl)cyclopropane-1-carboxamido)benzamide] | 50 to 100 | 50 to 100 | A (80-100) |
| O=C(Nc1ccc(-n2cnnc2)cc1)c1cc(NC(=O)[C@H]2[C@H](c3cc(Cl)cc(Cl)c3)C2(Cl)Cl)ccc1Cl (relative stereo) [PF102, trans-N-(4-(4H-1,2,4-Triazol-4-yl)phenyl)-2-chloro-5-(2,2-dichloro-3-(3,5-dichlorophenyl)cyclopropane-1-carboxamido)benzamide] | 50 to 100 | 50 to 100 | A (80-100) |
| O=C(Nc1ccc(NC(=O)C2CC2)cc1)c1cc(NC(=O)[C@H]2[C@H](c3cc(Cl)cc(Cl)c3)C2(Cl)Cl)ccc1Cl (relative stereo) [PF107, trans-2-Chloro-N-(4-(cyclopropane-1-carboxamido)phenyl)-5-(2,2-dichloro-3-(3,5-dichlorophenyl)cyclopropane-1-carboxamido)benzamide] | 50 to 100 | 50 to 100 | A (80-100) |
| O=C(Nc1ccc(NC(=O)C2CC2(F)F)cc1)c1cc(NC(=O)[C@H]2[C@H](c3cc(Cl)cc(Cl)c3)C2(Cl)Cl)ccc1Cl (relative stereo) [PF108, trans-2-chloro-5-(2,2-dichloro-3-(3,5-dichlorophenyl)cyclopropane-1-carboxamido)-N-(4-(2,2-difluorocyclopropane-1-carboxamido)phenyl)benzamide] | 50 to 100 | 50 to 100 | A (80-100) |
| COC(=O)Nc1ccc(NC(=O)c2cc(NC(=O)[C@H]3[C@H](c4cc(Cl)cc(Cl)c4)C3(Cl)Cl)ccc2Cl)cc1 (relative stereo) [PF110, trans-methyl (4-(2-chloro-5-(2,2-dichloro-3-(3,5-dichlorophenyl)cyclopropane-1-carboxamido)benzamido)phenyl)carbamate] | 50 to 100 | 50 to 100 | B (More than 0-Less than 80) |
| Cc1cc(NC(=O)c2cc(NC(=O)[C@H]3[C@H](c4cc(Cl)cc(Cl)c4)C3(Cl)Cl)ccc2Cl)ccc1Cl (relative stereo) [PF113, trans-2-Chloro-N-(4-chloro-3-methylphenyl)-5-(2,2-dichloro-3-(3,5-dichlorophenyl)cyclopropane-1-carboxamido)benzamide] | 50 to 100 | 50 to 100 | A (80-100) |
| O=C(Nc1nnn[nH]1)c1cc(NC(=O)[C@H]2[C@H](c3cc(Cl)cc(Cl)c3)C2(Cl)Cl)ccc1Cl (relative stereo) [PF130, trans-2-Chloro-5-(2,2-dichloro-3-(3,5-dichlorophenyl)cyclopropane-1-carboxamido)-N-(1H-tetrazol-5-yl)benzamide] | 50 to 100 | 50 to 100 | B (More than 0-Less than 80) |
| O=C(Nc1nc(-c2cccs2)cs1)c1cc(NC(=O)[C@H]2[C@H](c3cc(Cl)cc(Cl)c3)C2(Cl)Cl)ccc1Cl (relative stereo) [PF135, trans-2-Chloro-5-(2,2-dichloro-3-(3,5-dichlorophenyl)cyclopropane-1-carboxamido)-N-(4-(thiophen-2-yl)thiazol-2-yl)benzamide] | 50 to 100 | 50 to 100 | A (80-100) |
| O=C(Nc1c[nH]c(=O)[nH]c1=O)c1cc(NC(=O)[C@H]2[C@H](c3cc(Cl)cc(Cl)c3)C2(Cl)Cl)ccc1Cl (relative stereo) [PF139, trans-2-Chloro-5-(2,2-dichloro-3-(3,5-dichlorophenyl)cyclopropane-1-carboxamido)-N-(2,4-dioxo-1,2,3,4-tetrahydropyrimidin-5-yl)benzamide] | 50 to 100 | 50 to 100 | B (More than 0-Less than 80) |
| O=C(Nc1cc(Cl)ccn1)c1cc(NC(=O)[C@H]2[C@H](c3cc(Cl)cc(Cl)c3)C2(Cl)Cl)ccc1Cl (relative stereo) [PF140, trans-2-Chloro-N-(4-chloropyridin-2-yl)-5-(2,2-dichloro-3-(3,5-dichlorophenyl)cyclopropane-1-carboxamido)benzamide] | 50 to 100 | 50 to 100 | A (80-100) |
| O=C(Nc1ccc(Cl)cn1)c1cc(NC(=O)[C@H]2[C@H](c3cc(Cl)cc(Cl)c3)C2(Cl)Cl)ccc1Cl (relative stereo) [PF141, trans-2-Chloro-N-(5-chloropyridin-2-yl)-5-(2,2-dichloro-3-(3,5-dichlorophenyl)cyclopropane-1-carboxamido)benzamide] | 50 to 100 | 50 to 100 | B (More than 0-Less than 80) |
